Laboratory results as given in ChEMBL document CHEMBL1909046, “DrugMatrix in vitro pharmacology data”.

Assays:
[1] = biological target: Kappa-type opioid receptor (Homo sapiens, UniProt P41145); test: DRUGMATRIX: Opiate kappa (OP2, KOP) radioligand binding (ligand: [3H] Diprenorphine); format: cell membranes, HEK293, Membrane; conditions: hek293; Not Active = under 50% inhibition at 10 µM
Carbonic anhydrase 2 = Carbonic anhydrase 2 (Homo sapiens, UniProt P00918); test: DRUGMATRIX: Carbonic Anhydrase II enzyme inhibition (substrate: 4-Nitrophenyl acetate (4-NPA)); format: tissue-based, Erythrocyte; conditions: erythrocyte; Not Active = under 50% inhibition at 10 µM
[2] = biological target: Sodium-dependent noradrenaline transporter (Homo sapiens, UniProt P23975); test: DRUGMATRIX: Norepinephrine Transporter radioligand binding (ligand: [125I] RTI-55); format: cell membranes, MDCK, Membrane; conditions: Not Active = under 50% inhibition at 10 µM
Sequence of Sodium-dependent noradrenaline transporter (P23975 whole entry): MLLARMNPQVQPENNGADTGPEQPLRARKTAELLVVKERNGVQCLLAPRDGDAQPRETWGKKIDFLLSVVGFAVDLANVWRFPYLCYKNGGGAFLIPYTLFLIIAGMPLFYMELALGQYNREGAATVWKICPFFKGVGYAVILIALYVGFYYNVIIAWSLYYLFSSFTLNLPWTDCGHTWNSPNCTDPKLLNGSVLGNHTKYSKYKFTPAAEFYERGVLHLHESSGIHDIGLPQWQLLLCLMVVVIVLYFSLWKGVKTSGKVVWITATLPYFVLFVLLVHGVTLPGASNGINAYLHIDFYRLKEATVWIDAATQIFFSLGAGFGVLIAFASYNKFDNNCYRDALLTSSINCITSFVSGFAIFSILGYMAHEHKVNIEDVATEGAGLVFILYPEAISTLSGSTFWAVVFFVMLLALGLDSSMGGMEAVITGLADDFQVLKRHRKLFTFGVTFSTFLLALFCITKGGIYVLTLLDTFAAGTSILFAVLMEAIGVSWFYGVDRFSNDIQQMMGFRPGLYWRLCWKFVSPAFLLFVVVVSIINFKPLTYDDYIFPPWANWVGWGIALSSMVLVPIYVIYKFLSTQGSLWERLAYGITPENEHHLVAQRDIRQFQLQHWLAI

[3] = biological target: Protein kinase C alpha type (Homo sapiens, UniProt P17252); format: cell-based; conditions: sf9;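 note: inhibition of PKCalpha kinase activity measured in an enzyme assay with histone as the phosphorylation substrate; in other assays of this panel Not Active means under 50% inhibition at 10 µM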
Melanocortin receptor 5 = Melanocortin receptor 5 (Homo sapiens, UniProt P33032); format: cell membranes, HEK293, Membrane; conditions: hek293; note: in other assays of this panel Not Active means under 50% inhibition at 10 µM
Sequence of Melanocortin receptor 5 (P33032 whole entry): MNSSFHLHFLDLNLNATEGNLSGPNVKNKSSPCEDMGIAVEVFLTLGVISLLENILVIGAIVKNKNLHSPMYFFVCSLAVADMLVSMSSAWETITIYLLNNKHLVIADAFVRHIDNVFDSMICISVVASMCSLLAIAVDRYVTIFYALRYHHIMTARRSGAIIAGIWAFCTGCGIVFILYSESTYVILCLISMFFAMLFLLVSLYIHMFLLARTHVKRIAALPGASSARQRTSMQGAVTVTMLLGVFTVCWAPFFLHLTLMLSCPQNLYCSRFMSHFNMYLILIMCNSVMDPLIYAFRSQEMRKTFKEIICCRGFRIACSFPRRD

Cannabinoid receptor 1 = Cannabinoid receptor 1 (Homo sapiens, UniProt P21554); format: cell membranes, Membrane; conditions: chem-1; note: in other assays of this panel Not Active means under 50% inhibition at 10 µM
Sequence of Cannabinoid receptor 1 (P21554 whole entry): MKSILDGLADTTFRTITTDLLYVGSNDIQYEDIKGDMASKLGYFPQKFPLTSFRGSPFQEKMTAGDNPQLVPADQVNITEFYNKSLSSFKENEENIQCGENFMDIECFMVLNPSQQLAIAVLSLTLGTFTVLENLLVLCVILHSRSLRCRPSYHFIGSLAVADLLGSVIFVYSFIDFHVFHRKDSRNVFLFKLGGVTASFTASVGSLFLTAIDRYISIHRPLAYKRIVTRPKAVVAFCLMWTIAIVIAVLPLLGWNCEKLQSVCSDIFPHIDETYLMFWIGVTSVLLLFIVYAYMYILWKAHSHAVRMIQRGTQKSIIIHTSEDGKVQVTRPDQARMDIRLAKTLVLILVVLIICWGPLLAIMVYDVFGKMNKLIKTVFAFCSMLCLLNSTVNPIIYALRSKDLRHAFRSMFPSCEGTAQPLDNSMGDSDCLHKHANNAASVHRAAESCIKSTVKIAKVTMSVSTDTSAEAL

[4] = biological target: T1, Type-2 angiotensin II receptor (Homo sapiens, UniProt P50052); format: cell-based; conditions: cho-k1; note: in other assays of this panel Not Active means under 50% inhibition at 10 µM
T1 sequence (P50052 whole entry): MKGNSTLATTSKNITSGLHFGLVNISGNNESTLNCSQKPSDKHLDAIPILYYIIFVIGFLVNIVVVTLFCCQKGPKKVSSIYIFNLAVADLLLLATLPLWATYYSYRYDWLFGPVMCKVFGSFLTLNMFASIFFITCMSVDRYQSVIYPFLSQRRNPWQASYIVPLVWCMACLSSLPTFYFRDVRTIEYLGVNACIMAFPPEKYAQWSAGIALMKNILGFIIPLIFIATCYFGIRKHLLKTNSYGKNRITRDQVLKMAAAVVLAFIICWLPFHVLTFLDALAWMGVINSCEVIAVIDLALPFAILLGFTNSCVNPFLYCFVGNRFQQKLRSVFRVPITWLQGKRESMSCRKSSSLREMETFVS

[5] = biological target: T2, Amine oxidase [flavin-containing] A (Homo sapiens, UniProt P21397); test: DRUGMATRIX: Monoamine Oxidase MAO-A enzyme inhibition (substrate: Kynuramine); parameters: species or system BTI-TN-5B1-4; conditions: bti-tn-5b1-4; Not Active = under 50% inhibition at 10 µM
T2 sequence (P21397 whole entry): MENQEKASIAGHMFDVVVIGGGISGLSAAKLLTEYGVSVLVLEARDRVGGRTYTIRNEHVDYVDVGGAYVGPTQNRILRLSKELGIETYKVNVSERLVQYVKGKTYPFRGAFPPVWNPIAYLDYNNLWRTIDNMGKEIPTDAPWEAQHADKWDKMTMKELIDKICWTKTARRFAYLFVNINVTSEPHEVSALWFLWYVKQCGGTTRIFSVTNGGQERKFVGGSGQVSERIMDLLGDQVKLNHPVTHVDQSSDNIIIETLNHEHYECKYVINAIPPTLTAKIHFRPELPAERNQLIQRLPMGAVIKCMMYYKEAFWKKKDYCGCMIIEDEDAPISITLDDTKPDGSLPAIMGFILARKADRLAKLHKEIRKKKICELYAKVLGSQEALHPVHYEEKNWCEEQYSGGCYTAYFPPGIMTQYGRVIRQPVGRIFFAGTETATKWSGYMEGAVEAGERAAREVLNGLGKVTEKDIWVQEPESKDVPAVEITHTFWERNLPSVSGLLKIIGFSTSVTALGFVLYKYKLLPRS

Thromboxane-A synthase = biological target: T3, Thromboxane-A synthase (Homo sapiens, UniProt P24557); test: biochemical; format: tissue-based, Platelet
T3 sequence (P24557 whole entry): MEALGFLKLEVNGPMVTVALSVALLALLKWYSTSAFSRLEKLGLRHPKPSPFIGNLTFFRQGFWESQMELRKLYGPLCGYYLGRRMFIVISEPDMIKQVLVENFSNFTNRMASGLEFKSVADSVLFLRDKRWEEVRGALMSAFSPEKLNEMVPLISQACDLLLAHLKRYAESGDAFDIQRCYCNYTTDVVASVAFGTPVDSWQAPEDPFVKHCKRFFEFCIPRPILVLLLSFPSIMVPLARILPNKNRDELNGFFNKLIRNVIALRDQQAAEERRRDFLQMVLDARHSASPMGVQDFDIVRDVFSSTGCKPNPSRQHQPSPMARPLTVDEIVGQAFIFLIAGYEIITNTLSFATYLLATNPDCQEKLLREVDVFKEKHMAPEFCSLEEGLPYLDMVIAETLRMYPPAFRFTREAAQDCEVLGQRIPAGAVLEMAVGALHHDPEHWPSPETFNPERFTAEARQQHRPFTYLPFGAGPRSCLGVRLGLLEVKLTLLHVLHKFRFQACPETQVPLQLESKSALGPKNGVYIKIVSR

Cytochrome P450 2C9 = Cytochrome P450 2C9 (Homo sapiens, UniProt P11712); conditions: bti-tn-5b1-4; note: in other assays of this panel Not Active means under 50% inhibition at 10 µM
[6] = biological target: Prostaglandin G/H synthase 1 (Homo sapiens, UniProt P23219); test: biochemical; format: tissue-based, Platelet; conditions: platelet
Sequence of Prostaglandin G/H synthase 1 (P23219 whole entry): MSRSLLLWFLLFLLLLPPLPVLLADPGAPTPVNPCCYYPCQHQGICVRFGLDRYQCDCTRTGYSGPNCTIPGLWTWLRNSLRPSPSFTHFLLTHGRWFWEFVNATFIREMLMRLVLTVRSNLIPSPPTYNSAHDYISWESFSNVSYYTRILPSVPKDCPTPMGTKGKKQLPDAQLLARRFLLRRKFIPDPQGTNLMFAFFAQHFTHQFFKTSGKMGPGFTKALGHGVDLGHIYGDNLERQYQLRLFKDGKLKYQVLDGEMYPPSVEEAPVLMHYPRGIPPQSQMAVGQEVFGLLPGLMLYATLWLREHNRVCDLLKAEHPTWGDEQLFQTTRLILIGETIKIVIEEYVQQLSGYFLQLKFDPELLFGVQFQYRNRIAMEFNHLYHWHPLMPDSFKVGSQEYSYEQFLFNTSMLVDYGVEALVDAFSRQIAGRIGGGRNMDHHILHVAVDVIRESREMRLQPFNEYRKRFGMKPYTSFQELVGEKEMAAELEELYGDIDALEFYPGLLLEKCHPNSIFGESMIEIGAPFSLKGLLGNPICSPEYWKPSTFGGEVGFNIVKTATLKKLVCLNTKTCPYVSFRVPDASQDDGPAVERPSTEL

[7] = biological target: Epidermal growth factor receptor (Homo sapiens, UniProt P00533); test: DRUGMATRIX: Protein Tyrosine Kinase, EGF Receptor enzyme inhibition (substrate: Poly(Glu:Tyr)); format: cell-based, Insect cells; conditions: Not Active = under 50% inhibition at 10 µM
Sequence of Epidermal growth factor receptor (P00533 whole entry): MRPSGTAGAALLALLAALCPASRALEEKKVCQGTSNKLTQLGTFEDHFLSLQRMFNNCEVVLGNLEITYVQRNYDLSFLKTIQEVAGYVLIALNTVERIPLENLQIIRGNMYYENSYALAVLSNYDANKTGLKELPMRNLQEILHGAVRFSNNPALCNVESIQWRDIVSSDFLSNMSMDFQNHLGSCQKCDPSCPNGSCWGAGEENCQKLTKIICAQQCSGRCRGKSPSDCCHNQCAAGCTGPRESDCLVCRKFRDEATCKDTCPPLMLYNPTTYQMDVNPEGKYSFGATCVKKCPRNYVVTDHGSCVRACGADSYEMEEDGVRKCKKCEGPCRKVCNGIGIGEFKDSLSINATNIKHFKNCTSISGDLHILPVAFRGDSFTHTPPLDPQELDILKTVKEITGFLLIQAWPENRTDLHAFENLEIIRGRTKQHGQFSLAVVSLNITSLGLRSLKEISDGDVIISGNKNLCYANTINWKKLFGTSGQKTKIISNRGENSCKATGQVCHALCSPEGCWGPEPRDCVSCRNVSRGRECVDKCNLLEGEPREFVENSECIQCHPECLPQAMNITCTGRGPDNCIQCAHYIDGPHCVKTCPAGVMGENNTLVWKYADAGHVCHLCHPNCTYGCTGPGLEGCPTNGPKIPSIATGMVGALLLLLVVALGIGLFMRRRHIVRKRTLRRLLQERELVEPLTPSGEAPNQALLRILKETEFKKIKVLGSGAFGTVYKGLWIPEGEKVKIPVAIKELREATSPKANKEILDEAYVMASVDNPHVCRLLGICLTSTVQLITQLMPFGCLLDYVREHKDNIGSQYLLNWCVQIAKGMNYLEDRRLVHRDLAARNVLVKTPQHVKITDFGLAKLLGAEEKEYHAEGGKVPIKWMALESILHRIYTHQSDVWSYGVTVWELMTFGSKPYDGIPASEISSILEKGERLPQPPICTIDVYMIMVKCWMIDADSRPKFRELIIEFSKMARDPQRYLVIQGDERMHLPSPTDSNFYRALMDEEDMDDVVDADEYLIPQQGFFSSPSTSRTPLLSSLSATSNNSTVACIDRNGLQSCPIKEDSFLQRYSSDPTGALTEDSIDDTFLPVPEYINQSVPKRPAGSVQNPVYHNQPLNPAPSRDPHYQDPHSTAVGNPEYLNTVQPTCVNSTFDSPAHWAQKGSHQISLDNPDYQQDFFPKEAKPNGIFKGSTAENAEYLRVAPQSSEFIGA

[8] = DRUGMATRIX: Phosphodiesterase PDE3 enzyme inhibition (substrate: [3H]cAMP + cAMP); format: tissue-based, Homo sapiens; conditions: platelet, Not Active = under 50% inhibition at 10 µM
[9] = biological target: Delta-type opioid receptor (Homo sapiens, UniProt P41143); format: cell membranes, HEK293, Membrane; conditions: hek293; note: in other assays of this panel Not Active means under 50% inhibition at 10 µM
Sequence of Delta-type opioid receptor (P41143 whole entry): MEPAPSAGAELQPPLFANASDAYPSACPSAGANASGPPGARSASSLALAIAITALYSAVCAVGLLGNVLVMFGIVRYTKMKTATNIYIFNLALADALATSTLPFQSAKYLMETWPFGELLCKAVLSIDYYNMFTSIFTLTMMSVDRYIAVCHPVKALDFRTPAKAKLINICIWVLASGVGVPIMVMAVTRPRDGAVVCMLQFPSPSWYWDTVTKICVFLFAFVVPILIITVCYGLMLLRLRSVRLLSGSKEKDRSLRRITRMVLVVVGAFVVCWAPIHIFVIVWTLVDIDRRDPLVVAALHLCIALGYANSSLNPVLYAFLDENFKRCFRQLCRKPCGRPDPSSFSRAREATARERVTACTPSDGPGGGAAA

B2 bradykinin receptor = biological target: T4, B2 bradykinin receptor (Homo sapiens, UniProt P30411); format: cell membranes, Membrane; conditions: chem-1; note: in other assays of this panel Not Active means under 50% inhibition at 10 µM
T4 sequence (P30411 whole entry): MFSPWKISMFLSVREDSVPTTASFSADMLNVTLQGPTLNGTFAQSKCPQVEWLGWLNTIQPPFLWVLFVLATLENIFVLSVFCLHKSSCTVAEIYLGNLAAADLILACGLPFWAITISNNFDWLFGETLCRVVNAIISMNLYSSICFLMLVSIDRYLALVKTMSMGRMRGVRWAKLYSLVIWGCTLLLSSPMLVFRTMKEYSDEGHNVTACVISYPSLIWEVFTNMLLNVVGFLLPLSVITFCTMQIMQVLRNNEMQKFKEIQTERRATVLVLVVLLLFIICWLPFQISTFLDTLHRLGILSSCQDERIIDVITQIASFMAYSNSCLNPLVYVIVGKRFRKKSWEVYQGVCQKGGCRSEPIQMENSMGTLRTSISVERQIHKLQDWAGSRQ

[10] = biological target: C-C chemokine receptor type 5 (Homo sapiens, UniProt P51681); format: cell membranes, Membrane; conditions: hek293; note: in other assays of this panel Not Active means under 50% inhibition at 10 µM
Sequence of C-C chemokine receptor type 5 (P51681 whole entry): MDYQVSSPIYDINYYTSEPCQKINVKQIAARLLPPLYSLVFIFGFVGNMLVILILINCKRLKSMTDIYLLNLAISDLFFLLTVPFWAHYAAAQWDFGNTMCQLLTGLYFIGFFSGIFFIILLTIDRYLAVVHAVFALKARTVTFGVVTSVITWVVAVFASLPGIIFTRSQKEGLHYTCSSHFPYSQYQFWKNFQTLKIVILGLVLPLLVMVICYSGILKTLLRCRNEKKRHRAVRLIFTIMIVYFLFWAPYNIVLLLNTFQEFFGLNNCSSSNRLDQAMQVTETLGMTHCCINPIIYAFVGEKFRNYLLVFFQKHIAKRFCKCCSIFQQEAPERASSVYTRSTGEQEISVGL

Sequence of Kappa-type opioid receptor (P41145 whole entry): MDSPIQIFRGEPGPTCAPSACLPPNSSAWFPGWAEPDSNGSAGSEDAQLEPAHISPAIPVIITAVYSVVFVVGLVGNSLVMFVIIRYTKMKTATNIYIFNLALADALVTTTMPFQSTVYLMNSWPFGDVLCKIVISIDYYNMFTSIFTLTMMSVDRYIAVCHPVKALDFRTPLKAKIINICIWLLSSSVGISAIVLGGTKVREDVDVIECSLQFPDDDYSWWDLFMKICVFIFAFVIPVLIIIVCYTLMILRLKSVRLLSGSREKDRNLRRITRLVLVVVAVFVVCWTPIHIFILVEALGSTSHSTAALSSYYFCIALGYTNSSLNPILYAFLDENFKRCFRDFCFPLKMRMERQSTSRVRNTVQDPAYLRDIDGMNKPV

Cn1cnc([N+](=O)[O-])c1Sc1ncnc2nc[nH]c12 [AZATHIOPRINE]
IC50 [1]: Not Active | IC50 (Carbonic anhydrase 2): Not Active | IC50 ([2]; mdck): Not Active | IC50 [3]: Not Active | IC50 (Melanocortin receptor 5): Not Active | IC50 (Cannabinoid receptor 1): Not Active | IC50 [4]: Not Active | IC50 [5]: Not Active | IC50 (Thromboxane-A synthase; platelet): Not Active | IC50 (Cytochrome P450 2C9): Not Active | Ki (Cytochrome P450 2C9): Not Active | IC50 [6]: Not Active | IC50 ([7]; insect cells): Not Active | IC50 [8]: Not Active | Ki [8]: Not Active | IC50 [9]: Not Active | IC50 (B2 bradykinin receptor): Not Active | IC50 [10]: Not Active

Oc1c(Cl)cc(Cl)cc1Sc1cc(Cl)cc(Cl)c1O [BITHIONOL]
IC50 [1]: Not Active | IC50 (Carbonic anhydrase 2): Not Active | IC50 ([2]; read-out: IC50): 1240 nM | Ki ([2]; read-out: Ki): 1230 nM | IC50 [3]: Not Active | IC50 (Melanocortin receptor 5): Not Active | IC50 (Cannabinoid receptor 1): Not Active | IC50 [4]: Not Active | IC50 [5]: Not Active | IC50 (Thromboxane-A synthase; read-out: IC50): 1840 nM | IC50 (Cytochrome P450 2C9): Not Active | Ki (Cytochrome P450 2C9): Not Active | IC50 [6]: Not Active | IC50 ([7]; read-out: IC50): 614 nM | IC50 ([8]; read-out: IC50): 2720 nM | IC50 [9]: Not Active | IC50 (B2 bradykinin receptor): Not Active | IC50 [10]: Not Active

COC1=CC(=O)C[C@@H](C)[C@]12Oc1c(Cl)c(OC)cc(OC)c1C2=O [GRISEOFULVIN]
IC50 [1]: Not Active | IC50 (Carbonic anhydrase 2): Not Active | IC50 ([2]; mdck): Not Active | IC50 [3]: Not Active | IC50 (Melanocortin receptor 5): Not Active | IC50 (Cannabinoid receptor 1): Not Active | IC50 [4]: Not Active | IC50 [5]: Not Active | IC50 (Thromboxane-A synthase; platelet): Not Active | IC50 (Cytochrome P450 2C9): Not Active | Ki (Cytochrome P450 2C9): Not Active | IC50 [6]: Not Active | IC50 ([7]; insect cells): Not Active | IC50 [8]: Not Active | Ki [8]: Not Active | IC50 [9]: Not Active | IC50 (B2 bradykinin receptor): Not Active | IC50 [10]: Not Active

CCCc1cc(=O)[nH]c(=S)[nH]1 [PROPYLTHIOURACIL]
IC50 [1]: Not Active | IC50 (Carbonic anhydrase 2): Not Active | IC50 ([2]; mdck): Not Active | IC50 [3]: Not Active | IC50 (Melanocortin receptor 5): Not Active | IC50 (Cannabinoid receptor 1): Not Active | IC50 [4]: Not Active | IC50 [5]: Not Active | IC50 (Thromboxane-A synthase; platelet): Not Active | IC50 (Cytochrome P450 2C9): Not Active | Ki (Cytochrome P450 2C9): Not Active | IC50 [6]: Not Active | IC50 ([7]; insect cells): Not Active | IC50 [8]: Not Active | Ki [8]: Not Active | IC50 [9]: Not Active | IC50 (B2 bradykinin receptor): Not Active | IC50 [10]: Not Active

CC(=O)OCC(=O)[C@@]1(OC(C)=O)[C@@H](C)C[C@H]2[C@@H]3C[C@H](F)C4=CC(=O)C=C[C@]4(C)[C@@]3(F)[C@@H](O)C[C@@]21C [DIFLORASONE DIACETATE]
IC50 [1]: Not Active | IC50 (Carbonic anhydrase 2): Not Active | IC50 ([2]; mdck): Not Active | IC50 [3]: Not Active | IC50 (Melanocortin receptor 5): Not Active | IC50 (Cannabinoid receptor 1): Not Active | IC50 [4]: Not Active | IC50 [5]: Not Active | IC50 (Thromboxane-A synthase; platelet): Not Active | IC50 (Cytochrome P450 2C9): Not Active | Ki (Cytochrome P450 2C9): Not Active | IC50 [6]: Not Active | IC50 ([7]; insect cells): Not Active | IC50 [8]: Not Active | Ki [8]: Not Active | IC50 [9]: Not Active | IC50 (B2 bradykinin receptor): Not Active | IC50 [10]: Not Active

CNC(=O)Oc1ccc2c(c1)[C@]1(C)CCN(C)[C@@H]1N2C [PHYSOSTIGMINE]
IC50 [1]: Not Active | IC50 (Carbonic anhydrase 2): Not Active | IC50 ([2]; mdck): Not Active | IC50 [3]: Not Active | IC50 (Melanocortin receptor 5): Not Active | IC50 (Cannabinoid receptor 1): Not Active | IC50 [4]: Not Active | IC50 [5]: Not Active | IC50 (Thromboxane-A synthase; platelet): Not Active | IC50 (Cytochrome P450 2C9): Not Active | Ki (Cytochrome P450 2C9): Not Active | IC50 [6]: Not Active | IC50 ([7]; insect cells): Not Active | IC50 [8]: Not Active | Ki [8]: Not Active | IC50 [9]: Not Active | IC50 (B2 bradykinin receptor): Not Active | IC50 [10]: Not Active

O=C1NC(=O)C(c2ccccc2)(c2ccccc2)N1 [PHENYTOIN]
IC50 [1]: Not Active | IC50 (Carbonic anhydrase 2): Not Active | IC50 ([2]; mdck): Not Active | IC50 [3]: Not Active | IC50 (Melanocortin receptor 5): Not Active | IC50 (Cannabinoid receptor 1): Not Active | IC50 [4]: Not Active | IC50 [5]: Not Active | IC50 (Thromboxane-A synthase; platelet): Not Active | IC50 (Cytochrome P450 2C9): Not Active | Ki (Cytochrome P450 2C9): Not Active | IC50 [6]: Not Active | IC50 ([7]; insect cells): Not Active | IC50 [8]: Not Active | Ki [8]: Not Active | IC50 [9]: Not Active | IC50 (B2 bradykinin receptor): Not Active | IC50 [10]: Not Active

O=C1OC2(c3ccc(O)cc3Oc3cc(O)ccc32)c2ccccc21 [FLUORESCEIN]
IC50 [1]: Not Active | IC50 (Carbonic anhydrase 2): Not Active | IC50 ([2]; mdck): Not Active | IC50 [3]: Not Active | IC50 (Melanocortin receptor 5): Not Active | IC50 (Cannabinoid receptor 1): Not Active | IC50 [4]: Not Active | IC50 [5]: Not Active | IC50 (Thromboxane-A synthase; platelet): Not Active | IC50 (Cytochrome P450 2C9): Not Active | Ki (Cytochrome P450 2C9): Not Active | IC50 [6]: Not Active | IC50 ([7]; insect cells): Not Active | IC50 [8]: Not Active | Ki [8]: Not Active | IC50 [9]: Not Active | IC50 (B2 bradykinin receptor): Not Active | IC50 [10]: Not Active
